# Patent publication US20220289692A1, “NLRP3 INHIBITORS” (Inflazome Limited, priority 2019, published 2022)
# Biological target: T1, NLRP3 (Homo sapiens, UniProt Q96P20)
# Assay: Human whole blood IL-1β release assay (LPS, nigericin, AlphaLisa)
# Type: cell-based
# Set-up: Plate out 80 μl of whole blood containing 1 μg/ml of LPS in 96-well, clear bottom cell culture plate; from tissue; host or cells: human whole blood from healthy donors, LPS-primed, nigericin-stimulated
# Conditions: 1 μg/ml LPS, 3 hrs compound, nigericin 10 μM 1 hr, read-out: HWB IC50
# Method: For systemic delivery, the ability to inhibit NLRP3 when the compounds are present within the bloodstream is of great importance. For this reason, the NLRP3 inhibitory activity of a number of compounds in human whole blood was investigated in accordance with the following protocol.
# Human whole blood in Li-heparin tubes was obtained from healthy donors from a volunteer donor panel. • 1. Plate out 80 μl of whole blood containing 1 μg/ml of LPS in 96-well, clear bottom cell culture plate (Corning #3585) • 2. Add 10 μl compound (8 points half-log dilution with 10 μM top dose) or vehicle (DMSO 0.1% FAC) to the appropriate wells • 3. Incubate for 3 hrs at 37° C., 5% CO2 • 4. Add 10 μl nigericin (Sigma #N7143) (10 μM FAC) to all wells • 5. Incubate for 1 hr at 37° C., 5% CO2 • 6. At the end of the incubation period, spin plates at 300×g for 5 mins to pellet cells and remove 20 μl of supernatant and add to 96-well v-bottom plates for IL-1β analysis (note: these plates containing the supernatants can be stored at −80° C. to be analysed at a later date) • 7. IL-1β was measured according to the manufacturer protocol (Perkin Elmer-AlphaLisa IL-1 Kit AL220F-5000) • 8. IC50 data is fitted to a non-linear regression equation (log inhibitor vs response-variable slope 4-parameters)
# T1 sequence (Q96P20 whole entry): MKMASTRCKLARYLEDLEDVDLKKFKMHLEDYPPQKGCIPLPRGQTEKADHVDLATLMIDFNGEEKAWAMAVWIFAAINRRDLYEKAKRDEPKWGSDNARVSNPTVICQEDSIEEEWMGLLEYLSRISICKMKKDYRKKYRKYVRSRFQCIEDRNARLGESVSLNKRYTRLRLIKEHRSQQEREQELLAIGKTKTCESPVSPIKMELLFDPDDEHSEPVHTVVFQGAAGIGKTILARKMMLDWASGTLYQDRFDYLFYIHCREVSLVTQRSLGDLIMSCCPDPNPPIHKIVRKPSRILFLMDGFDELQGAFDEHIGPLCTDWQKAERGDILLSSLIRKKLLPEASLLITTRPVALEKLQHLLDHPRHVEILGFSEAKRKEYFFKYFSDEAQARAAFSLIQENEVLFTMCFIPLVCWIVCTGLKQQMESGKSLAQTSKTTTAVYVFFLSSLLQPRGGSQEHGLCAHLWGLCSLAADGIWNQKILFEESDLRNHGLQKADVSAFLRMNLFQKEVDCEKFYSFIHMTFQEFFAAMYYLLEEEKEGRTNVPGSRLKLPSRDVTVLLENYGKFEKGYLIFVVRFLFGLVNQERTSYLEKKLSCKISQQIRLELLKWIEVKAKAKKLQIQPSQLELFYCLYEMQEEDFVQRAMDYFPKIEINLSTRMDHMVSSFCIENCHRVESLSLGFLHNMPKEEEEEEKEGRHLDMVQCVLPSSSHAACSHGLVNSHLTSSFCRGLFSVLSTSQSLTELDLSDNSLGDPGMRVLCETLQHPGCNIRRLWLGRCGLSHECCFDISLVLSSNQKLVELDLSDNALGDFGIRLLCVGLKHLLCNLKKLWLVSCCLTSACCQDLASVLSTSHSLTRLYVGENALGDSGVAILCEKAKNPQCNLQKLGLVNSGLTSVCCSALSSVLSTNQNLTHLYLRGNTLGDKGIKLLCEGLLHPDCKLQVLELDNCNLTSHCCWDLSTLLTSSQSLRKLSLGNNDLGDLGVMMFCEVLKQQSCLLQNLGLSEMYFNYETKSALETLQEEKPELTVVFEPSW
row,IC50 [µM],SMILES
1,≤ 5,"CCOC(=O)c1nnc(Nc2c3c(cc4c2CCC4)CCC3)[nH]1 [Example 1, ethyl 5-((1,2,3,5,6,7-hexahydro-s-indacen-4-yl)amino)-4H-1,2,4-triazole-3-carboxylate]"

# Biological target: T1, NLRP3
# Assay: THP-1 cells pyroptosis assay (LPS priming, nigericin, resazurin read-out)
# Type: cell-based
# Set-up: Seed THP-1 cells (25,000 cells/well) containing 1.0 μg/ml LPS in 40 μl of RPMI medium; host or cells: THP-1 cells, LPS-primed, nigericin-stimulated
# Conditions: 1.0 μg/ml LPS, 3 hrs compound, nigericin 5 μM 1 hr
# Method: THP-1 cells (ATCC #TIB-202) were grown in RPMI containing L-glutamine (Gibco #11835) supplemented with 1 mM sodium pyruvate (Sigma #S8636) and penicillin (100 units/ml)/streptomycin (0.1 mg/ml) (Sigma #P4333) in 10% Fetal Bovine Serum (FBS) (Sigma #F0804). The cells were routinely passaged and grown to confluency (˜10^6 cells/ml). On the day of the experiment, THP-1 cells were harvested and resuspended into RPMI medium (without FBS). The cells were then counted and viability (>90%) checked by Trypan blue (Sigma #T8154). Appropriate dilutions were made to give a concentration of 625,000 cells/ml. To this diluted cell solution was added LPS (Sigma #L4524) to give a […] Final Assay Concentration (FAC). 40 μl of the final preparation was aliquoted into each well of a 96-well plate. The plate thus prepared was used for compound screening. The following method step-by-step assay was followed for compound screening. • 1. Seed THP-1 cells (25,000 cells/well) containing 1.0 μg/ml LPS in 40 μl of RPMI medium (without FBS) in 96-well, black walled, clear bottom cell culture plates coated with poly-D-lysine (VWR #734-0317) • 2. Add 5 μl compound (8 points half-log dilution, with 10 μM top dose) or vehicle (DMSO 0.1% FAC) to the appropriate wells • 3. Incubate for 3 hrs at 37° C., 5% CO2 • 4. Add 5 μl nigericin (Sigma #N7143) (FAC 5 μM) to all wells • 5. Incubate for 1 hr at 37° C., 5% CO2 • 6. At the end of the incubation period, spin plates at 300×g for 3 mins and remove supernatant • 7. Then add 50 μl of resazurin (Sigma #R7017) (FAC 100 μM resazurin in RPMI medium without FBS) and incubate plates for a further 1-2 hrs at 37° C. and 5% CO2 • 8. Plates were read in an Envision reader at Ex 560 nm and Em 590 nm • 9. IC50 data is fitted to a non-linear regression equation (log inhibitor vs response-variable slope 4-parameters) The results of the pyroptosis assay are summarised in Table 1 below as THP IC50.
row,SMILES,IC50 [µM]
1,"O=C(OCc1cccnc1)c1nnc(Nc2c3c(cc4c2CCC4)CCC3)[nH]1 [Example 2, pyridin-3-ylmethyl 5-((1,2,3,5,6,7-hexahydro-s-indacen-4-yl)amino)-4H-1,2,4-triazole-3-carboxylate]",≤ 10
2,O=C(OCc1ccccc1)c1nnc(Nc2c3c(cc4c2CCC4)CCC3)[nH]1 [Example 4],≤ 5
3,CC(C)OC(=O)c1nnc(Nc2c3c(cc4c2CCC4)CCC3)[nH]1 [Example 6],≤ 10
4,COC(=O)c1nnc(Nc2c3c(cc4c2CCC4)CCC3)[nH]1 [Example 7],≤ 2

# The remaining lines, values ahead:
row,IC50 [µM],SMILES
1,≤ 2,"CCOC(=O)c1nnc(Nc2c3c(cc4c2CCC4)CCC3)[nH]1 [Example 1, ethyl 5-((1,2,3,5,6,7-hexahydro-s-indacen-4-yl)amino)-4H-1,2,4-triazole-3-carboxylate]"
2,≤ 10,COC(=O)c1nnc(Nc2c(-c3ccnc(OC4CCN(C)CC4)c3)ccc3c2CCC3)[nH]1 [Example 3]
3,≤ 5,COC(=O)c1nnc(Nc2c3c(cc(C)c2-c2ccnc(OC)c2)CCC3)[nH]1 [Example 5]
4,≤ 5,CCOC(=O)c1nnc(Nc2c(-c3ccnc(OC)c3)ccc3c2CCC3)[nH]1 [Example 8]
